Counter-ions that a name gives are not always drawn.
Key:
[1] = target: EZH2 Y641F mutant (PRC2 enzyme) (Homo sapiens (Human), UniProt Q15910, Y641F); assay: PRC2 enzyme assay on peptide substrate, EZH2 Y641F mutant (H3K27me2 peptide, 3H-SAM Flashplate); format: biochemical; conditions: Y641F mutant PRC2 4 nM
Description: (§1) Human PRC2 enzymes were purified as 4-component enzyme complexes co-expressed in Spodoptera frugiperda (sf9) cells using a baculovirus expression system. […] The EED subunit contained an N-terminal FLAG tag that was used to purify the entire 4-component complex from sf9 cell lysates.
(§2) The assays were all performed in a buffer consisting of 20 mM bicine (pH=7.6), 0.5 mM DTT, 0.005% BSG and 0.002% Tween20, prepared on the day of use. […] DMSO (1 μL) was added to columns 11, 12, 23, 24, rows A-H for the maximum signal control, and SAH, a known product and inhibitor of PRC2 (1 μL) was added to columns 11, 12, 23, 24, rows I-P for the minimum signal control. A cocktail (40 μL) containing the wild-type PRC2 enzyme and H3K27me0 peptide or any of the Y641 mutant enzymes and H3K27me2 peptide was added by Multidrop Combi (Thermo). The compounds were allowed to incubate with PRC2 for 30 min at 25° C., then a cocktail (10 μL) containing a mixture of non-radioactive and ^3H-SAM was added to initiate the reaction (final volume=51 μL). […] The assays were stopped by the addition of non-radioactive SAM (10 μL) to a final concentration of 600 μM, which dilutes the ^3H-SAM to a level where its incorporation into the peptide substrate is no longer detectable. 50 of the reaction in the 384-well polypropylene plate was then transferred to a 384-well Flashplate and the biotinylated peptides were allowed to bind to the streptavidin surface for at least 1 h before being washed three times with 0.1% Tween20 in a Biotek ELx405 plate washer. The plates were then read in a PerkinElmer TopCount platereader to measure the quantity of ^3H-labeled peptide bound to the Flashplate surface, measured as disintegrations per minute (dpm) or alternatively, referred to as counts per minute (cpm).

[2] = target: wild-type EZH2 (PRC2 enzyme) (Homo sapiens (Human), UniProt Q15910); assay: PRC2 enzyme assay on peptide substrate, wild-type EZH2 (H3K27me0 peptide, 3H-SAM Flashplate); format: biochemical; conditions: wild-type PRC2 4 nM, read-out: WT EZH2 IC50
Sequence of wild-type EZH2 (PRC2 enzyme) (Q15910 whole entry): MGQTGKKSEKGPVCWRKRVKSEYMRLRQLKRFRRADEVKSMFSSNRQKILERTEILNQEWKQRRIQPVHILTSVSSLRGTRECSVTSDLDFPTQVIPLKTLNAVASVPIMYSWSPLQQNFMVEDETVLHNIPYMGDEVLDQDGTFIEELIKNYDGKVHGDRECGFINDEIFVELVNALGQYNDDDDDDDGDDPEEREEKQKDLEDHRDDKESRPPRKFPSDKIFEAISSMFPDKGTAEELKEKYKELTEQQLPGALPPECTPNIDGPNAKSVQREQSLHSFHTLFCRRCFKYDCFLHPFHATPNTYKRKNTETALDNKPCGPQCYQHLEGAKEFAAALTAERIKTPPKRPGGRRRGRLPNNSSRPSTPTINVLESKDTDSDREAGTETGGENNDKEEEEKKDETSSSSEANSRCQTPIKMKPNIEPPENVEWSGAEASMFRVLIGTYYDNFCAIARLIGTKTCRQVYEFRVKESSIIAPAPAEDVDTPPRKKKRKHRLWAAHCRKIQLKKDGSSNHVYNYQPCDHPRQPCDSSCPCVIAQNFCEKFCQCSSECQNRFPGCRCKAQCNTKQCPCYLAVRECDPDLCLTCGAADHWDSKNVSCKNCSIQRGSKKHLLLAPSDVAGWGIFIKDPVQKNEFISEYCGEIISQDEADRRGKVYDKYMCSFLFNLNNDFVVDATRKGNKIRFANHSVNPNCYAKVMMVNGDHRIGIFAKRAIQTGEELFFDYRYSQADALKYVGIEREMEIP
Sequence of wild-type EZH2 (PRC2 enzyme) (O75530 whole entry partner): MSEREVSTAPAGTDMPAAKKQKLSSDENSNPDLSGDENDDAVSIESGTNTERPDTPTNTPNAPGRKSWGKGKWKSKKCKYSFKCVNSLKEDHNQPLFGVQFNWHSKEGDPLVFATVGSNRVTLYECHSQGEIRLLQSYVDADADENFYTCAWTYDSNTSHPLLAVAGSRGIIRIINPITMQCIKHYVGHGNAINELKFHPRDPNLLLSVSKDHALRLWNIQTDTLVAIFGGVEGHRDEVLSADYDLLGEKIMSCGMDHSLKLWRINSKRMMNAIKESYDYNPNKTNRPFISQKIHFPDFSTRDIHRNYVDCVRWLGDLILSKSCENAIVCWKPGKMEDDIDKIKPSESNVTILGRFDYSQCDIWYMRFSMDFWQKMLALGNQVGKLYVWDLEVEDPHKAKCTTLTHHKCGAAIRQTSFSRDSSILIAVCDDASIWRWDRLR
Sequence of wild-type EZH2 (PRC2 enzyme) (Q15022 whole entry partner): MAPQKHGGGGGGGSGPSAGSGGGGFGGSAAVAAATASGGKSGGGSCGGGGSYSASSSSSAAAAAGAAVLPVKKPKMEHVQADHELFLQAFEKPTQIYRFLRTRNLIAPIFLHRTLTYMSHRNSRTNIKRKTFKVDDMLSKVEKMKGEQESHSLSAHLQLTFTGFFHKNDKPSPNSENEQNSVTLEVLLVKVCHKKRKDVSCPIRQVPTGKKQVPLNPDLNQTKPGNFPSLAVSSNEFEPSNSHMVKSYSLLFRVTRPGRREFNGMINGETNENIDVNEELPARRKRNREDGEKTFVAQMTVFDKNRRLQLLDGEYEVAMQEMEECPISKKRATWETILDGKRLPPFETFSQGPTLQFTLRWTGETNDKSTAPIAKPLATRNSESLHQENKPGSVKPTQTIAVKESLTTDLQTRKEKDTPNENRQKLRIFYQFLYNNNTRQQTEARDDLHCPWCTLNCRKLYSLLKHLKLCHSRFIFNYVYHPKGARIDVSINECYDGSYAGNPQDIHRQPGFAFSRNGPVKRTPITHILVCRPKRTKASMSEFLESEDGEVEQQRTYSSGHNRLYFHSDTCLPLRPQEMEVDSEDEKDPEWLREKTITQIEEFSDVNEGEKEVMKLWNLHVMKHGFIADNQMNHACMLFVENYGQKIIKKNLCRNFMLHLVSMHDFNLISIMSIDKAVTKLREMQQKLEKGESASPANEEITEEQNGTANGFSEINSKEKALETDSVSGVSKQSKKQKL
Sequence of wild-type EZH2 (PRC2 enzyme) (Q09028 whole entry partner): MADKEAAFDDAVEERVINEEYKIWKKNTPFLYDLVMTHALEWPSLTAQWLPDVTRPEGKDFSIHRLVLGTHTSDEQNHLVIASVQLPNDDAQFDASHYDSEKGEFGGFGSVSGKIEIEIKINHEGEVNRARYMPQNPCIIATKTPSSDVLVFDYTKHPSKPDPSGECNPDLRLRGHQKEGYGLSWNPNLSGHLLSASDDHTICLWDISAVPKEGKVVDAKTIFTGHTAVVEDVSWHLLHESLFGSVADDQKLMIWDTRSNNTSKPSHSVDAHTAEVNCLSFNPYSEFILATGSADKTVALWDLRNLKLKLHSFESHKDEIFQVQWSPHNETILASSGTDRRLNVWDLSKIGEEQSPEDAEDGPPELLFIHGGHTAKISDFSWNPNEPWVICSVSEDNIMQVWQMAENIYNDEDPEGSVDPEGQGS
Description: as §1, §2

Sequence of EZH2 Y641F mutant (PRC2 enzyme) (Q15910 whole entry Y641F): as the sequence (Q15910 whole entry) above, with Y641F counted along it
Sequence of EZH2 Y641F mutant (PRC2 enzyme) (O75530 whole entry partner): as the sequence (O75530 whole entry partner) above
Sequence of EZH2 Y641F mutant (PRC2 enzyme) (Q15022 whole entry partner): as the sequence (Q15022 whole entry partner) above
Sequence of EZH2 Y641F mutant (PRC2 enzyme) (Q09028 whole entry partner): as the sequence (Q09028 whole entry partner) above

| IC50 [1] [µM] | IC50 [2] [µM] | SMILES |
| --- | --- | --- |
|  | > 50 | CCN(c1cc(Cl)cc(C(=O)NCc2c(C)nn(C)c2OC)c1C)[C@@H]1COC[C@H]1OCCOC (relative stereo) [Compound 44, 5-chloro-3-(ethyl((trans)-4-(2-methoxyethoxy)tetrahydrofuran-3-yl)amino)-N-((5-methoxy-1,3-dimethyl-1H-pyrazol-4-yl)methyl)-2-methylbenzamide] |
| > 50 | > 50 | CCN(c1cc(Cl)cc(C(=O)NCc2c(C)[nH]n(C)c2=O)c1C)[C@@H]1COC[C@H]1OCCOC (relative stereo) [Compound 45, 5-chloro-N-((2,5-dimethyl-3-oxo-2,3-dihydro-1H-pyrazol-4-yl)methyl)-3-(ethyl((trans)-4-(2-methoxyethoxy)tetrahydrofuran-3-yl)amino)-2-methylbenzamide] |
| 11.5 | 34.5 | CCN(c1cc(Cl)cc(C(=O)NCc2c(C)cc3nc(C)[nH]n3c2=O)c1C)[C@H]1CC[C@H](N(C)C)CC1 [Compound 9, 5-chloro-N-((2,7-dimethyl-5-oxo-3,5-dihydro-[1,2,4]triazolo[1,5-a]pyridin-6-yl)methyl)-3-(((trans)-4-(dimethylamino)cyclohexyl)(ethyl)amino)-2-methylbenzamide] |
| 2.67 | 15.6 | CCN(c1cc(Cl)cc(C(=O)NCc2c(C)[nH]n(C(C)C)c2=O)c1C)[C@H]1CC[C@H](N(C)C)CC1 [Compound 37, 5-chloro-3-(((trans)-4-(dimethylamino)cyclohexyl)(ethyl)amino)-N-((2-isopropyl-5-methyl-3-oxo-2,3-dihydro-1H-pyrazol-4-yl)methyl)-2-methylbenzamide] |
| 2.23 | 6.58 | CCN(c1cc(Cl)cc(C(=O)NCc2c(C(C)C)[nH]n(C)c2=O)c1C)[C@H]1CC[C@H](N(C)C)CC1 [Compound 39, 5-chloro-3-(((trans)-4-(dimethylamino)cyclohexyl)(ethyl)amino)-N-((5-isopropyl-2-methyl-3-oxo-2,3-dihydro-1H-pyrazol-4-yl)methyl)-2-methylbenzamide] |
|  | 2.59 | CCN(c1cc(Cl)cc(C(=O)NCc2c(OC)nn(C)c2C)c1C)[C@H]1CC[C@H](N(C)Cc2cccc(OCCOC)c2)CC1 [Compound 68, 5-chloro-3-(ethyl((trans)-4-((3-(2-methoxyethoxy)benzyl)(methyl)amino)cyclohexyl)amino)-N-((3-methoxy-1,5-dimethyl-1H-pyrazol-4-yl)methyl)-2-methylbenzamide] |

The remaining lines, values behind:

| SMILES | IC50 [1] [µM] | IC50 [2] [µM] |
| --- | --- | --- |
| CCO[C@@H]1COC[C@H]1N(CC)c1cc(Cl)cc(C(=O)NCc2c(C)[nH]n(C)c2=O)c1C (relative stereo) [Compound 43, 5-chloro-N-((2,5-dimethyl-3-oxo-2,3-dihydro-1H-pyrazol-4-yl)methyl)-3-(((trans)-4-ethoxytetrahydrofuran-3-yl)(ethyl)amino)-2-methylbenzamide] | > 50 | > 50 |
| CCN(c1cc(Cl)cc(C(=O)NCc2c(C)nc3cc[nH]n3c2=O)c1C)[C@H]1CC[C@H](N(C)C)CC1 [Compound 8, 5-chloro-3-(((trans)-4-(dimethylamino)cyclohexyl)(ethyl)amino)-2-methyl-N-((5-methyl-7-oxo-1,7-dihydropyrazolo[1,5-a]pyrimidin-6-yl)methyl)benzamide] | 5.82 | 20 |
| CCN(c1cc(Cl)cc(C(=O)NCc2cn(C)[nH]c2=O)c1C)[C@H]1CC[C@H](N(C)C)CC1 [Compound 31a, 5-chloro-3-(ethyl((trans)-4-(dimethylamino)cyclohexyl]amino)-2-methyl-N-((1-methyl-3-oxo-2,3-dihydro-1H-pyrazol-4-yl)methyl]benzamide formate] | 0.23 | 0.505 |
| CCN(c1cc(Cl)cc(C(=O)NCc2c(SC)n(C)[nH]c2=O)c1C)[C@H]1CC[C@H](N(C)C)CC1 [Compound 31b, 5-chloro-3-{ethyl[(trans)-4-(dimethylamino)cyclohexyl]amino}-2-methyl-N-{[1-methyl-5-(methylsulfanyl)-3-oxo-2,3-dihydro-1H-pyrazol-4-yl]methyl}benzamide Formate] | 1.07 | 1.24 |
